# pKi: −log10 of the molar value.
# Target: T1, Caspase-1 (Homo sapiens, UniProt P29466)
# T1 sequence (P29466 whole entry): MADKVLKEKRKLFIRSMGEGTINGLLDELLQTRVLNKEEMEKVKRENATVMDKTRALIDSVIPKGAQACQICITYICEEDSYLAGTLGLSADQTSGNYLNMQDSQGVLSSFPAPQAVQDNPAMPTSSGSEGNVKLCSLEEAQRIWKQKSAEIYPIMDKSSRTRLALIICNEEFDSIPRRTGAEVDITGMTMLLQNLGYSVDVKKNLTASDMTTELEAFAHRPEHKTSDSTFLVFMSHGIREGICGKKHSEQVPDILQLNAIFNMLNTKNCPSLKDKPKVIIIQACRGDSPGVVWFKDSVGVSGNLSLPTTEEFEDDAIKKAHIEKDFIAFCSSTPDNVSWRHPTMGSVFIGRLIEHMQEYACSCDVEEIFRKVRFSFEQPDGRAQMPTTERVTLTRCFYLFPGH
# Assay: Caspase Inhibition Assay
# Settings: pH 7; 37 °C
# Method: The substrate peptides terminating in AMC are processed by caspases with or without inhibitors, and the accumulation of AMC was assessed with a Cytofluor fluorescent plate reader at excitation and emission wavelengths of 380 and 460 nm. Compounds were tested, and full IC50 curves were run for all compounds expressing measurable inhibitory activity.
row,SMILES,pKi
1,CC(C)c1ccc(Oc2ccccc2S(=O)(=O)N[C@H](C=O)CC(=O)O)cc1 [(3S)-4-oxo-3-({2-[4-(propan-2-yl)phenoxy]benzene}sulfonamido)butanoic acid],6.21
2,O=C[C@H](CC(=O)O)NS(=O)(=O)c1ccccc1Oc1ccc(C2CCCCC2)cc1 [(3S)-3-{[2-(4-cyclohexylphenoxy)benzene]sulfonamido}-4-oxobutanoic acid],6.05
3,"Cc1cccc(Oc2ccccc2S(=O)(=O)N[C@H](C=O)CC(=O)O)c1C [(3S)-3-{[2-(2,3-dimethylphenoxy)benzene]sulfonamido}-4-oxobutanoic acid]",6.00
4,CCC(C)c1ccc(Oc2ccccc2S(=O)(=O)N[C@H](C=O)CC(=O)O)cc1C (stereo partly drawn) [(3S)-3-({2-[4-(butan-2-yl)-3-methylphenoxy]benzene}sulfonamido)-4-oxobutanoic acid],7.00
5,Cc1cc(Oc2ccccc2S(=O)(=O)N[C@H](C=O)CC(=O)O)ccc1C(C)C [(3S)-3-({2-[3-methyl-4-(propan-2-yl)phenoxy]benzene}sulfonamido)-4-oxobutanoic acid],6.96
6,Cc1ccc(Oc2ccccc2S(=O)(=O)N[C@H](C=O)CC(=O)O)cc1 [(3S)-3-{[2-(4-methylphenoxy)benzene]sulfonamido}-4-oxobutanoic acid],5.96
7,O=C[C@H](CC(=O)O)NS(=O)(=O)c1ccccc1Oc1ccc(-c2ccc(C(=O)O)cc2)cc1 [4-[4-(2-{[(2S)-1-carboxy-3-oxopropan-2-yl]sulfamoyl}phenoxy)phenyl]benzoic acid],5.38
8,"Cc1cc(Oc2ccccc2S(=O)(=O)N[C@H](C=O)CC(=O)O)cc(C)c1C [(3S)-4-oxo-3-{[2-(3,4,5-trimethylphenoxy)benzene]sulfonamido}butanoic acid]",6.35
9,Cc1ccccc1Oc1ccccc1S(=O)(=O)N[C@H](C=O)CC(=O)O [(3S)-3-{[2-(2-methylphenoxy)benzene]sulfonamido}-4-oxobutanoic acid],5.52
10,CCC(CC)c1ccc(Oc2ccccc2S(=O)(=O)N[C@H](C=O)CC(=O)O)cc1 [(3S)-4-oxo-3-({2-[4-(pentan-3-yl)phenoxy]benzene}sulfonamido)butanoic acid],6.36
11,O=C[C@H](CC(=O)O)NS(=O)(=O)c1ccccc1Oc1ccc(C2CCCC2)cc1 [(3S)-3-{[2-(4-cyclopentylphenoxy)benzene]sulfonamido}-4-oxobutanoic acid],6.06
12,O=C[C@H](CC(=O)O)NS(=O)(=O)c1ccccc1Oc1ccccc1 [(3S)-4-oxo-3-[(2-phenoxybenzene)sulfonamido]butanoic acid],5.62
13,O=C[C@H](CC(=O)O)NS(=O)(=O)c1ccccc1Oc1ccc(-c2ccccc2)cc1 [(3S)-4-oxo-3-{[2-(4-phenylphenoxy)benzene]sulfonamido}butanoic acid],6.54
14,Cc1cccc(Oc2ccccc2S(=O)(=O)N[C@H](C=O)CC(=O)O)c1 [(3S)-3-{[2-(3-methylphenoxy)benzene]sulfonamido}-4-oxobutanoic acid],6.37
15,CCC(C)c1ccc(Oc2ccccc2S(=O)(=O)N[C@H](C=O)CC(=O)O)cc1 (stereo partly drawn) [(3S)-3-({2-[4-(butan-2-yl)phenoxy]benzene}sulfonamido)-4-oxobutanoic acid],6.31

# — BindingDB's records for doi:10.1016/s0960-894x(01)00573-x (Pfizer, 2001)
